Changes are numbered by the printed parent chain. Structures can show the parent of a compound that is named as a salt. Marks after values point to notes of the source that are not given here. One block for each molecule: values may come before it.
Legend:
mSUCNR1 [1] = biological target: T1, mSUCNR1 (Mus musculus, UniProt Q99MT6); test: cAMP assay, agonist potency at mSUCNR1; format: cell-based; parameters: expressed in transfected cells; host or cells: Flp-In T-REx 293; settings: for cAMP mSUCNR1 pEC50: Flp-In T-REx 293 cells, mean ± SEM, minimum three independent experiments
T1 sequence (Q99MT6 1-317): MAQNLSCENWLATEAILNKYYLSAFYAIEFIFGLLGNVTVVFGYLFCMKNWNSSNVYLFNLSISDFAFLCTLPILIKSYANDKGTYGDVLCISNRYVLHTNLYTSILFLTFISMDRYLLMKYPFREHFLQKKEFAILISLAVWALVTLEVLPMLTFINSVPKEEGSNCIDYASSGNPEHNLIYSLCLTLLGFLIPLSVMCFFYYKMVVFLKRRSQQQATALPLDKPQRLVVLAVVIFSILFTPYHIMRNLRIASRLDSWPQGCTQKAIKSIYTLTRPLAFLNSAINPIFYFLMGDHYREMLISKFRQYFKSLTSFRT

hSUCNR1 [2] = biological target: T2, hSUCNR1 (Homo sapiens, UniProt Q9BXA5); test: cAMP assay, inhibition of succinate response at hSUCNR1; format: cell-based; parameters: expressed in transfected cells; host or cells: Flp-In T-REx 293; settings: for cAMP hSUCNR1 pIC50: inhibition of […] succinate response, mean ± SEM
T2 sequence (Q9BXA5 1-334): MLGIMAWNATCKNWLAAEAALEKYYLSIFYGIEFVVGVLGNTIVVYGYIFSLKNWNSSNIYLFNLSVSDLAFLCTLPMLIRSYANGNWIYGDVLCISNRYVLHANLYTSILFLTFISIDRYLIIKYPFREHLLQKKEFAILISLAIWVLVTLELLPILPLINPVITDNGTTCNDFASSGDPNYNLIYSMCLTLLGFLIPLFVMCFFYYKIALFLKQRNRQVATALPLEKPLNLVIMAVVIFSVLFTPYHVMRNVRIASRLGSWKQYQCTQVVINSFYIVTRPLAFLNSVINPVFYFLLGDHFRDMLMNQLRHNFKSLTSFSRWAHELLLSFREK

hSUCNR1 [3] = biological target: T2, hSUCNR1; test: BRET competition binding using 22 as tracer, hSUCNR1; settings: 3 μM 22, Kd = 990 nM; mean ± SEM, three experiments
hSUCNR1 [4] = biological target: T2, hSUCNR1; test: BRET competition binding using 46 as tracer, hSUCNR1; settings: […] 46, Kd = 310 nM
mSUCNR1 [5] = biological target: T1, mSUCNR1; test: BRET competition binding using 22 as tracer, mSUCNR1; settings: 1 μM 22, Kd = […]; highest unlabeled ligand 30 μΜ
hmSUCNR1 [6] = biological target: T3, hmSUCNR1 (Mus musculus, UniProt Q99MT6, G84W/K269N/N18E); test: BRET competition binding using 22 as tracer, hmSUCNR1
T3 sequence (Q99MT6 1-317 N18E/G84W/K269N): T1 sequence (Q99MT6 1-317) with N18E, G84W, K269N

hmSUCNR1 [7] = biological target: T3, hmSUCNR1; test: BRET competition binding using 46 as tracer, hmSUCNR1

- cAMP mSUCNR1 pEC50 (mSUCNR1 [1]): 7.35 ± 0.05
SMILES: CNCCCCCCOc1ccc(-c2ccc(C(=O)N[C@@H](CC(=O)O)C(=O)O)o2)cc1 [Compound 20, (S)-6-(4-(5-((1,2-Dicarboxyethyl)carbamoyl)furan-2-yl)phenoxy)-N-methylhexan-1-aminium 2,2,2-trifluoroacetate]

- fold increase in potency relative to 32 (hSUCNR1 [2]; hSUCNR1 cAMP): 3 fold
- cAMP hSUCNR1 pIC50 (hSUCNR1 [2]): 6.78 ± 0.01
SMILES: Cc1ccc(C(=O)Nc2ccccc2CC(=O)O)cc1-c1ccc(Cl)cc1 [Compound 34, 2-(2-(4′-Chloro-6-methyl-[1,1′-biphenyl]-3-carboxamido)phenyl)acetic acid]

SMILES: CC(C)(C)OC(=O)NCCCCCOc1ccc(-c2ccc(C(=O)N[C@@H](CC(=O)O)C(=O)O)o2)cc1 [Compound 8c, (5-(4-((5-((tert-Butoxycarbonyl)amino)pentyl)oxy)phenyl)furan-2-carbonyl)-L-aspartic acid]
- cAMP mSUCNR1 pEC50 (mSUCNR1 [1]): 6.60 ± 0.16
- fold decrease in potency on mSUCNR1 (mSUCNR1 [1]; relative to agonist scaffold 2): 2.5 fold

- Competion binding using 22 hSUCNR1 pKi (hSUCNR1 [3]): 4.1 ± 0.1
- Competion binding using 46 hSUCNR1 pKi (hSUCNR1 [4]): 4.1 ± 0.3
SMILES: O=C(O)[C@H]1O[C@H]1C(=O)O [Compound 47, cis-epoxysuccinic acid]

- Competion binding using 22 mSUCNR1 pKi (mSUCNR1 [5]): <4.5 ^d
SMILES: Cc1cc(Cl)ccc1-c1cccc(C(=O)Nc2ccccc2CC(=O)O)c1 [Compound 35, 2-(2-(4′-Chloro-2′-methyl-[1,1′-biphenyl]-3-carboxamido)phenyl)acetic acid]

SMILES: CCOc1ccc(-c2ccc(C(=O)N[C@@H](CC(=O)O)C(=O)O)o2)cc1 [Compound 2]
- Competion binding using 22 mSUCNR1 pKi (mSUCNR1 [5]): 6.2 ± 0.1
- cAMP mSUCNR1 pEC50 (mSUCNR1 [1]): 7.01 ± 0.04

SMILES: CC(C)(C)OC(=O)NCCOCCOc1ccc(-c2cccc(C(=O)N[C@@H](CC(=O)O)C(=O)O)n2)cc1 [Compound 15e, (6-(4-(2-(2-((tert-Butoxycarbonyl)amino)ethoxy)ethoxy)phenyl)picolinoyl)-L-aspartic acid]
- cAMP mSUCNR1 pEC50 (mSUCNR1 [1]): 6.01 ± 0.18

SMILES: CC(C)(C)OC(=O)NCCN1CCN(Cc2ccc(-c3cccc(C(=O)Nc4ccccc4CC(=O)O)c3)cc2)CC1 [Compound 43, 1-(2-((tert-Butoxycarbonyl)amino)ethyl)-4-((3′-((2-(carboxymethyl)phenyl)carbamoyl)-[1,1′-biphenyl]-4-yl)methyl)piperazin-1-ium 2,2,2-trifluoroacetate]
- cAMP hSUCNR1 pIC50 (hSUCNR1 [2]): 6.82 ± 0.02

SMILES: CC(C)(C)OC(=O)NCCCCOc1ccc(-c2ccc(C(=O)N[C@@H](CC(=O)O)C(=O)O)o2)cc1 [Compound 8b, (5-(4-(4-((tert-Butoxycarbonyl)amino)butoxy)phenyl)furan-2-carbonyl)-L-aspartic acid]
- cAMP mSUCNR1 pEC50 (mSUCNR1 [1]): 6.47 ± 0.18

- Competion binding using 22 mSUCNR1 pKi (mSUCNR1 [5]): <4.5 ^d
SMILES: Cc1cc(CN2CCN(C)CC2)ccc1-c1cccc(C(=O)Nc2ccccc2CC(=O)O)c1 [Compound 44, 4-((3′-((2-(Carboxymethyl)phenyl)carbamoyl)-2-methyl-[1,1′-biphenyl]-4-yl)methyl)-1-methylpiperazin-1-ium 2,2,2-trifluoroacetate]

SMILES: CC(C)(C)OC(=O)NCCCCOc1ccc(-c2cccc(C(=O)N[C@@H](CC(=O)O)C(=O)O)n2)cc1 [Compound 15b, (6-(4-(4-((tert-Butoxycarbonyl)amino)butoxy)phenyl)picolinoyl)-L-aspartic acid]
- cAMP mSUCNR1 pEC50 (mSUCNR1 [1]): 5.97 ± 0.09

- cAMP mSUCNR1 pEC50 (mSUCNR1 [1]): 7.10 ± 0.11
SMILES: NCCCOc1ccc(-c2ccc(C(=O)N[C@@H](CC(=O)O)C(=O)O)o2)cc1 [Compound 9a, (S)-3-(4-(5-((1,2-Dicarboxyethyl)carbamoyl)furan-2-yl)phenoxy)propan-1-aminium 2,2,2-trifluoroacetate]

SMILES: CC(C)(C)OC(=O)NCCCOc1ccc(-c2cccc(C(=O)N[C@@H](CC(=O)O)C(=O)O)n2)cc1 [Compound 15a, (6-(4-(3-((tert-Butoxycarbonyl)amino)propoxy)phenyl)picolinoyl)-L-aspartic acid]
- cAMP mSUCNR1 pEC50 (mSUCNR1 [1]): 5.90 ± 0.08

SMILES: CC(C)(C)OC(=O)NCCCCCOc1ccc(-c2cccc(C(=O)N[C@@H](CC(=O)O)C(=O)O)n2)cc1 [Compound 15c, (6-(4-((5-((tert-Butoxycarbonyl)amino)pentyl)oxy)phenyl)picolinoyl)-L-aspartic acid]
- cAMP mSUCNR1 pEC50 (mSUCNR1 [1]): 5.68 ± 0.11

SMILES: CC(C)(C)OC(=O)NCCCCCCOc1ccc(-c2cccc(C(=O)N[C@@H](CC(=O)O)C(=O)O)n2)cc1 [Compound 15d, (6-(4-((6-((tert-Butoxycarbonyl)amino)hexyl)oxy)phenyl)picolinoyl)-L-aspartic acid]
- cAMP mSUCNR1 pEC50 (mSUCNR1 [1]): 5.76 ± 0.07

SMILES: O=C(O)C[C@H](NC(=O)c1cccc(-c2ccc(OC(F)(F)F)cc2)n1)C(=O)O [Compound 3]
- Competion binding using 22 mSUCNR1 pKi (mSUCNR1 [5]): 5.8 ± 0.1
- cAMP mSUCNR1 pEC50 (mSUCNR1 [1]): 6.58 ± 0.16

- Competion binding using 22 mSUCNR1 pKi (mSUCNR1 [5]): 6.2 ± 0.1
SMILES: NCCCCCCOc1ccc(-c2ccc(C(=O)N[C@@H](CC(=O)O)C(=O)O)o2)cc1 [Compound 9d, (S)-6-(4-(5-((1,2-Dicarboxyethyl)carbamoyl)furan-2-yl)phenoxy)hexan-1-aminium 2,2,2-trifluoroacetate]

- Competion binding using 22 hSUCNR1 pKi (hSUCNR1 [3]): 5.9 ± 0.5
- Competion binding using 22 mSUCNR1 pKi (mSUCNR1 [5]): <4.5 ^d
- Ki (hmSUCNR1 [6]): > 31600 nM
- Ki (hmSUCNR1 [7]): > 31600 nM
SMILES: O=C(O)CCc1cccc(Oc2ccc(Oc3cccc4cnccc34)cc2C(F)(F)F)c1 [Compound 48]

- Competion binding using 22 hSUCNR1 pKi (hSUCNR1 [3]): 7.8 ± 0.3
- Competion binding using 22 mSUCNR1 pKi (mSUCNR1 [5]): <4.5 ^d
- Competion binding using 46 hSUCNR1 pKi (hSUCNR1 [4]): 7.6 ± 0.1
- Ki (hmSUCNR1 [6]): 316 nM
- fold lower affinity at hmSUCNR1 compared to hSUCNR1 (hmSUCNR1 [6]; competition binding): ~10 fold
- Ki (hmSUCNR1 [7]): 251 nM
- cAMP hSUCNR1 pIC50 (hSUCNR1 [2]): 6.31 ± 0.18
SMILES: O=C(O)Cc1ccccc1NC(=O)c1cccc(-c2ccc(Cl)cc2)c1 [Compound 32, 2-(2-(4′-Chloro-[1,1′-biphenyl]-3-carboxamido)phenyl)acetic acid]

SMILES: CC(C)(C)OC(=O)NCCCCCCOc1ccc(-c2ccc(C(=O)N[C@@H](CC(=O)O)C(=O)O)o2)cc1 [Compound 8d, (5-(4-((6-((tert-Butoxycarbonyl)amino)hexyl)oxy)phenyl)furan-2-carbonyl)-L-aspartic acid]
- cAMP mSUCNR1 pEC50 (mSUCNR1 [1]): 6.42 ± 0.11

- cAMP mSUCNR1 pEC50 (mSUCNR1 [1]): 7.20 ± 0.02
SMILES: CN(C)CCCCCCOc1ccc(-c2ccc(C(=O)N[C@@H](CC(=O)O)C(=O)O)o2)cc1 [Compound 21, (S)-6-(4-(5-((1,2-Dicarboxyethyl)carbamoyl)furan-2-yl)phenoxy)-N,N-dimethylhexan-1-aminium 2,2,2-trifluoroacetate]

SMILES: NCCCCOc1ccc(-c2ccc(C(=O)N[C@@H](CC(=O)O)C(=O)O)o2)cc1 [Compound 9b, (5-(4-(4-Aminobutoxy)phenyl)furan-2-carbonyl)-L-aspartic acid hydrochloride]
- cAMP mSUCNR1 pEC50 (mSUCNR1 [1]): 7.13 ± 0.06

SMILES: CC(C)(C)OC(=O)NCCCOc1ccc(-c2ccc(C(=O)N[C@@H](CC(=O)O)C(=O)O)o2)cc1 [Compound 8a, (5-(4-(3-((tert-Butoxycarbonyl)amino)propoxy)phenyl)furan-2-carbonyl)-L-aspartic acid]
- cAMP mSUCNR1 pEC50 (mSUCNR1 [1]): 6.25 ± 0.09

SMILES: CC(C)(C)OC(=O)NCCNCCCCCCOc1ccc(-c2ccc(C(=O)N[C@@H](CC(=O)O)C(=O)O)o2)cc1 [Compound 17, (S)-N-(2-((tert-Butoxycarbonyl)amino)ethyl)-6-(4-(5-((1,2-dicarboxyethyl)carbamoyl)furan-2-yl)phenoxy)hexan-1-aminium 2,2,2-trifluoroacetate]
- cAMP mSUCNR1 pEC50 (mSUCNR1 [1]): 7.40 ± 0.11

- cAMP mSUCNR1 pEC50 (mSUCNR1 [1]): 6.91 ± 0.09
SMILES: NCCCCCOc1ccc(-c2ccc(C(=O)N[C@@H](CC(=O)O)C(=O)O)o2)cc1 [Compound 9c, (S)-5-(4-(5-((1,2-Dicarboxyethyl)carbamoyl)furan-2-yl)phenoxy)pentan-1-aminium 2,2,2-trifluoroacetate]

— PMC10350927 (Journal of Medicinal Chemistry, 2023)
